# Source: patent US8207122B2, “Anti-cancer bioactive peptides isolated from crude venom of Xinjiang Lycosa singoriensis” (Xiamen Bioway Biotech Co., Limited, priority 2007, dated 2012)
# Where a SMILES comes first, the peptide text is derived from it. Where no end group is shown, it is not given here.
# How the values were obtained:
# [1] = Toxicity on a whole animal, subcutaneous injection; assay type: in vivo; conditions: 200 mg/Kg body weight, mice, within 48 hours
# Hela cells = test: Comparison of inhibitory activity of peptides on Hela cells; assay type: cell-based; conditions: for activity compared with SEQ ID NO. 1: anti-cancer activity, in words
# Experimental: The above-mentioned experiments have verified the peptide has strong inhibition on the growth of cancer cells and solid tumors. In order to study the inhibition degree of difference sequences (SEQ. Nos. 1-5) of the peptide on tumor cells, comparative experiments of measuring the activity of Hela cells were conducted (as shown in FIG. 7).
# Nos. 1-4, at a concentration of 40 μmol/L, the inhibition rate on Hela cells was about 90%, at 20 μmol/L, about 50%, at 5 μmol/L, only 2%. Thus, the inhibition degree of SEQ. Nos. 1-4 on Hela cells was basically equal. However, for SEQ. No. 5, at a concentration of 40 μmol/L, 20 μmol/L, and 5 μmol/L, the inhibition rate on Hela cells was more than 80%. Compared with that of SEQ. Nos. 1-4, the inhibition degree of SEQ. No. 5 had been increased by about 10 times. No. 1 and SEQ. No. 5 could dissolve 19% and 37% red cells respectively, which meant the hemolytic activity of SEQ. No. 5 was […] than that of SEQ. No. 1.
compound,measurement,setting,value
CC[C@H](C)[C@H](NC(=O)[C@H](Cc1ccccc1)NC(=O)[C@H](CCCCN)NC(=O)[C@H](C)NC(=O)[C@@H](NC(=O)[C@H](CO)NC(=O)[C@H](CCCCN)NC(=O)[C@H](CCSC)NC(=O)[C@H](C)NC(=O)[C@H](CCCCN)NC(=O)[C@H](Cc1ccccc1)NC(=O)[C@H](Cc1c[nH]c2ccccc12)NC(=O)CNC(=O)[C@H](CCCCN)NC(=O)[C@@H](N)CCCNC(=N)N)[C@@H](C)CC)C(=O)N[C@@H](C)C(=O)N[C@@H](CCCCN)C(=O)N[C@@H](CCC(=O)O)C(=O)N[C@@H](CCCCN)C(=O)N[C@@H](CC(C)C)C(=O)N[C@@H](CCCCN)C(=O)N[C@@H](CCC(=O)O)C(=O)N[C@@H](Cc1c[nH]cn1)C(=O)N[C@@H](CC(C)C)C(N)=O [SEQ. No. 1] (H-RKGWFKAMKSIAKFIAKEKLKEHL-NH2),toxic reaction,[1],no obvious toxic reaction was observed
"CC[C@H](C)[C@H](NC(=O)[C@H](Cc1ccccc1)NC(=O)[C@H](CCCCN)NC(=O)[C@H](C)NC(=O)[C@@H](NC(=O)[C@H](CO)NC(=O)[C@H](CCCCN)NC(=O)[C@H](CCSC)NC(=O)[C@H](C)NC(=O)[C@@H](N)CCCCN)[C@@H](C)CC)C(=O)N[C@@H](C)C(=O)N[C@@H](CCCCN)C(N)=O [SEQ. No. 5, Lys Ala Met Lys Ser Ile Ala Lys Phe Ile Ala Lys-NH2] (H-KAMKSIAKFIAK-NH2)",inhibition rate on Hela cells,Hela cells; 5 μmol/L,more than 80%
same,inhibition rate on Hela cells,Hela cells; 20 μmol/L,more than 80%
same,inhibition rate on Hela cells,Hela cells; 40 μmol/L,more than 80%
Lys Gly Trp Phe Lys Ala Met Lys Ser Ile Ala Lys Phe Ile Ala Lys Glu Lys Leu Lys Glu His Leu-NH2 (KGWFKAMKSIAKFIAKEKLKEHL-NH2) [SEQ ID NO. 3],activity compared with SEQ ID NO. 1,Hela cells,same activity
Lys Gly Trp Phe Lys Ala Met Lys Ser Ile Ala Lys Phe Ile Ala Lys Glu Lys Met Lys Glu His Leu-NH2 (KGWFKAMKSIAKFIAKEKMKEHL-NH2; listed as Lycosa singoriensis) [SEQ ID NO. 2],activity compared with SEQ ID NO. 1,Hela cells,same activity
WFKAMKSIAKFIAKEKLK [SEQ ID NO. 4],activity compared with SEQ ID NO. 1,Hela cells,same activity
